Like-named read-outs stand apart in the source and are kept apart here.
Columns and labels:
[1] = test system: P. falciparum K1; experiment: P. falciparum ED50 determination, [3H]-hypoxanthine incorporation, strain K1; format: cell-based, Plasmodium falciparum
Description: (§1) Plasmodium strains. The P. falciparum strains used in this study were 3D7 (Netherlands, sensitive) provided by Dr. Pradipsinh Rathod from the University of Washington and K1 (Thailand, ChQ-R, Pyr-R) obtained from the MR4Unit of the American Type Culture Collection (ATCC, Manassas, Va.).
(§2) P. falciparum culture. Strains of P. falciparum were sustained in vitro based on experimental techniques as described by Trager and Jensen.^26 Cultures were maintained in RPMI-1640 (Sigma, St. Louis, […].) with 2 mM L-glutamine, 25 mM HEPES, 33 mM NaHCO3, 20 μg/ml gentamicin sulfate and 20% (v/v) heat-inactivated human plasma type A+ (R^P-20P). Type A+ erythrocytes were obtained from lab donors, washed three times with RPMI, re-suspended in 50% RPMI, and stored at 4° C. Parasites were grown in 10 mL of a 2% hematocrit/RP-20P (v/v) in 50-mL flasks under a 5% CO2, 5% O2, and 90% N2 atmosphere.
(§3) P. falciparum ED50 determination. One […]L of PFTI dissolved in DMSO was added to each well of a 96-well plate followed by the addition of 200 μL of P. falciparum culture at parasitemia and hematocrit of 0.5%. Plates were flushed with 5% CO2, 5% O2, and 90% N2 then incubated at 37° C. for 48 hr. [8-^3H]-hypoxanthine (0.3 μCi, 20 Ci/mmol, American Radiolabeled Chemicals) in 30 μL RP-20P was added to cultures and incubated for an additional 24 hours. Cells were harvested onto filter mats by a Multiharvester (Skatron, Sunnyvale, Calif.) and the radioactivity incorporated into the parasites was counted on a β-scintillation counter. The background level detected with uninfected erythrocytes was subtracted from the data. The ^3H-incorporation into infected RBCs with 1 μL DMSO vehicle alone represents 100% malaria growth. ED50 values were determined by linear regression analysis of the plots of ^3H-hypoxanthine incorporation versus concentration of compound.

[2] = test system: P. falciparum 3D7; experiment: P. falciparum ED50 determination, [3H]-hypoxanthine incorporation, strain 3D7; format: cell-based, Plasmodium falciparum
Description: as §1, §2, §3

[3] = molecular target: T1, PfPFT (Plasmodium falciparum, UniProt Q8I503+Q8IHP6); experiment: PfPFT inhibition, scintillation proximity assay with partially purified PfPFT; format: biochemical; conditions: for IC50: concentration decreasing transferase activity twofold; for inhibition at 0.005 µM: read-out: % Inhibition of PfPFT at 5 nM, inhibitor at 5 nM; for inhibition at 0.05 µM: read-out: % Inhibition of PfPFT at 50 nM, inhibitor at 50 nM; for % Inhibition of PfPFT at 5 nM: inhibitor at 5 nM; for % Inhibition of PfPFT at 50 nM: inhibitor at 50 nM
T1 sequence (Q8I503 1-521): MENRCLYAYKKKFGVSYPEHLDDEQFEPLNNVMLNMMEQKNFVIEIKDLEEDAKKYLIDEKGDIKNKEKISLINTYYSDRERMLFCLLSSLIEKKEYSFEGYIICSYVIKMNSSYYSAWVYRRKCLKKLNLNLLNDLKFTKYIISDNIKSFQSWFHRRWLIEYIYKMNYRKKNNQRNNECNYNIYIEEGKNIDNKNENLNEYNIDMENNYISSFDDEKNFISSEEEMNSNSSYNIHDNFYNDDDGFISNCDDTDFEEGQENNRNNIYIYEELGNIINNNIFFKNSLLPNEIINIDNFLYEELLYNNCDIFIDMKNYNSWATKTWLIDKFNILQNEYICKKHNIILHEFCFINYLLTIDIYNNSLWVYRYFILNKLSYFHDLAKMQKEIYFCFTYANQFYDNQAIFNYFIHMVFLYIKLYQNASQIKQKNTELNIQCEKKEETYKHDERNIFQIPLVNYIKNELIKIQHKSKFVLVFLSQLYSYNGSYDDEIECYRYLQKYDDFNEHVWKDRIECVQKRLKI
T1 sequence (Q8IHP6 1-923): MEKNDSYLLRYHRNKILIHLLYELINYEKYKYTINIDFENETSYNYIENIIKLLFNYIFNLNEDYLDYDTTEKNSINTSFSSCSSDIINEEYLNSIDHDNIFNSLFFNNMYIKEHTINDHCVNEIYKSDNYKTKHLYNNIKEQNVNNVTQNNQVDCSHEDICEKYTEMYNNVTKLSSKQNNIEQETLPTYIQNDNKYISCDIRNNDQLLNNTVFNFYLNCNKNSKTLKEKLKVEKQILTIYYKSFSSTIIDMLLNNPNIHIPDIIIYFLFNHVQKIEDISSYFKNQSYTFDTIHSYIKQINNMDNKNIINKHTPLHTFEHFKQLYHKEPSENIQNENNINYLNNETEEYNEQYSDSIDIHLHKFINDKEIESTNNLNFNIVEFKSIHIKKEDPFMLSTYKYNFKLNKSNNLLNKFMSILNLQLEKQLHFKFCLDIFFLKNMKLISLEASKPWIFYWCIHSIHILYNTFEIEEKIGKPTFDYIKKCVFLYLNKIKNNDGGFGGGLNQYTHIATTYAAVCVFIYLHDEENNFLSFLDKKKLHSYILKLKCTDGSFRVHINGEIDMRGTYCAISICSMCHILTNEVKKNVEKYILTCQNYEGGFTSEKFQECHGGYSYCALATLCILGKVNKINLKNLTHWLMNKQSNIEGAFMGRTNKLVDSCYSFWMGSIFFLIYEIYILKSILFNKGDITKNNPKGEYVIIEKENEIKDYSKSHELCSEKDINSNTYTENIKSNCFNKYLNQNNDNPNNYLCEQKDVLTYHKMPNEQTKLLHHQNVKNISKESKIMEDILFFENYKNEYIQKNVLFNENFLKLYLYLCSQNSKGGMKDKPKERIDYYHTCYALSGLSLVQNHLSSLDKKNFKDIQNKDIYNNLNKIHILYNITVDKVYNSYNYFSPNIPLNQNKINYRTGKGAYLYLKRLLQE

[4] = molecular target: Rat FTase (Rattus norvegicus, UniProt Q02293+Q04631); experiment: Rat farnesyltransferase IC50 determination; format: biochemical; conditions: concentration decreasing transferase activity twofold
[5] = Plasmodium falciparum, K1, strain K1, concentration decreasing hypoxanthine incorporation into parasites twofold, read-out: ED50 K1
[6] = Plasmodium falciparum, 3D7, strain 3D7, concentration decreasing hypoxanthine incorporation into parasites twofold, read-out: ED50 3D7
[7] = strain K1, concentration decreasing hypoxanthine incorporation into parasites twofold, read-out: ED50 K1
[8] = strain 3D7, concentration decreasing hypoxanthine incorporation into parasites twofold, read-out: ED50 3D7

## Cn1cnc(S(=O)(=O)N(CCN(Cc2cncn2C)c2ccc(C#N)cc2)CC(=O)NC(C)(C)C)c1 [Compound 8o, N-tert-Butyl-2-[{2-[(4-cyano-phenyl)-(3-methyl-3H-imidazol-4-ylmethyl)-amino]-ethyl}-(1-methyl-1H-imidazole-4-sulfonyl)-amino]-acetamide]
[1]; [5]
  EC50: > 5000 nM
[2]; [6]
  EC50: 2800 nM
[3]
  IC50: > 1000 nM
  inhibition at 0.005 µM: 4%
  inhibition at 0.05 µM: 6%
[4]
  IC50: > 1000 nM

## Cc1ccc(CN(CCN(Cc2cncn2C)c2ccc(C#N)cc2)S(=O)(=O)c2cn(C)cn2)cc1 [Compound 8z, 1-Methyl-1H-imidazole-4-sulfonic acid {2-[(4-cyano-phenyl)-(3-methyl-3H-imidazol-4-ylmethyl)-amino]-ethyl}-(4-methyl-benzyl)-amide]
[1]; Plasmodium falciparum, K1, read-out: ED50 K1
  EC50: > 5000 nM
[2]; Plasmodium falciparum, 3D7, read-out: ED50 3D7
  EC50: 2700 nM
[3]
  inhibition at 0.005 µM: 45%
  inhibition at 0.05 µM: 54%

## Cn1cnc(S(=O)(=O)N(CCN(Cc2cncn2C)c2ccc(Br)cc2)Cc2ccccc2)c1 [Compound 8b, 1-Methyl-1H-imidazole-4-sulfonic acid benzyl-{2-[(4-bromo-phenyl)-(3-methyl-3H-imidazol-4-ylmethyl)-amino]-ethyl}-amide]
[1]; [5]
  EC50: 3200 nM
[2]; [6]
  EC50: 675 nM
[3]
  inhibition at 0.005 µM: 86%
  inhibition at 0.05 µM: 95%
[4]
  IC50: 290 nM

## C=C(C)CN(CCN(Cc1cncn1C)c1ccc(C#N)cc1)S(=O)(=O)c1cn(C)cn1 [Compound 8m, 1-Methyl-1H-imidazole-4-sulfonic acid {2-[(4-cyano-phenyl)-(3-methyl-3H-imidazol-4-ylmethyl)-amino]-ethyl}-(2-methyl-allyl)-amide]
[1]; [5]
  EC50: > 5000 nM
[2]; [6]
  EC50: > 5000 nM
[3]
  inhibition at 0.005 µM: 6%
  inhibition at 0.05 µM: 77%

## Cn1cnc(S(=O)(=O)N(CCN(Cc2cncn2C)c2ccc(C#N)cc2)Cc2ccncc2)c1 [Compound 8ac, 1-Methyl-1H-imidazole-4-sulfonic acid {2-[(4-cyano-phenyl)-(3-methyl-3H-imidazol-4-ylmethyl)-amino]-ethyl}-pyridin-4-ylmethyl-amide]
[1]; [5]
  EC50: 5000 nM
[2]; [6]
  EC50: 3700 nM
[3]
  inhibition at 0.005 µM: 22%
  inhibition at 0.05 µM: 62%

## Cn1cnc(S(=O)(=O)N(CCN(Cc2cncn2C)c2ccc(C#N)cc2)CC2CCN(c3ncccn3)CC2)c1 [Compound 8w, 1-Methyl-1H-imidazole-4-sulfonic acid {2-[(4-cyano-phenyl)-(3-methyl-3H-imidazol-4-ylmethyl)-amino]-ethyl}-(1-pyrimidin-2-yl-piperidin-4-ylmethyl)-amide]
[1]; [5]
  EC50: 85 nM
[2]; [6]
  EC50: 130 nM
[3]
  IC50: 1.5 nM
  inhibition at 0.005 µM: 74%
  inhibition at 0.05 µM: 96%

## Cc1cccc(CN(CCN(Cc2cncn2C)c2ccc(C#N)cc2)S(=O)(=O)c2cn(C)cn2)c1 [Compound 8y, 1-Methyl-1H-imidazole-4-sulfonic acid {2-[(4-cyano-phenyl)-(3-methyl-3H-imidazol-4-ylmethyl)-amino]-ethyl}-(3-methyl-benzyl)-amidem-toluene]
[1]; [7]
  EC50: 1000 nM
[2]; [8]
  EC50: 300 nM
[3]
  % Inhibition of PfPFT at 5 nM: 61%
  % Inhibition of PfPFT at 50 nM: 94%

## Cn1cnc(S(=O)(=O)N(CCN(Cc2cncn2C)c2ccc(C#N)cc2)Cc2cccc(-c3ccccc3)c2)c1 [Compound 8af, 1-Methyl-1H-imidazole-4-sulfonic acid biphenyl-3-ylmethyl-{2-[(4-cyano-phenyl)-(3-methyl-3H-imidazol-4-ylmethyl)-amino]-ethyl}-amide]
[1]; [5]
  EC50: 3250 nM
[2]; [6]
  EC50: 2400 nM
[3]
  inhibition at 0.005 µM: 56%
  inhibition at 0.05 µM: 93%

## Cn1cnc(S(=O)(=O)N(CCN(Cc2cncn2C)c2ccc(C#N)cc2)Cc2cccc(C#N)c2)c1 [Compound 8ad, 1-Methyl-1H-imidazole-4-sulfonic acid (3-cyano-benzyl)-{2-[(4-cyano-phenyl)-(3-methyl-3H-imidazol-4-ylmethyl)-amino]-ethyl}-amidem-cyanobenzyl]
[1]; [7]
  EC50: 1800 nM
[2]; [8]
  EC50: 350 nM
[3]
  % Inhibition of PfPFT at 5 nM: 45%
  % Inhibition of PfPFT at 50 nM: 89%

## Cn1cnc(S(=O)(=O)N(CCN(Cc2cncn2C)c2ccc(C#N)cc2)CCn2cccc2)c1 [Compound 8p, 1-Methyl-1H-imidazole-4-sulfonic acid {2-[(4-cyano-phenyl)-(3-methyl-3H-imidazol-4-ylmethyl)-amino]-ethyl}-(2-pyrrol-1-yl-ethyl)-amide]
[1]; [5]
  EC50: > 5000 nM
[2]; [6]
  EC50: > 5000 nM
[3]
  inhibition at 0.005 µM: 11%
  inhibition at 0.05 µM: 56%

## Cn1cncc1CN(CCN(Cc1ccccc1)S(=O)(=O)c1cccc2cccnc12)c1ccc(C#N)cc1 [Compound 8h, Quinoline-8-sulfonic acid benzyl-{2-[(4-cyano-phenyl)-(3-methyl-3H-imidazol-4-ylmethyl)-amino]-ethyl}-amide]
[1]; [5]
  EC50: 2400 nM
[2]; [6]
  EC50: 2100 nM
[3]
  inhibition at 0.005 µM: 14%
  inhibition at 0.05 µM: 35%

## Cn1cnc(S(=O)(=O)N(CCN(Cc2cncn2C)c2ccc(Br)cc2)Cc2ccccn2)c1 [Compound 13, 1-Methyl-1H-imidazole-4-sulfonic acid {2-[(4-bromo-phenyl)-(3-methyl-3H-imidazol-4-ylmethyl)-amino]-ethyl}-pyridin-2-ylmethyl-amide]
[4]
  IC50: 83 nM

## CC(C)C(=O)N1CCC(CN(CCN(Cc2cncn2C)c2ccc(C#N)cc2)S(=O)(=O)c2cn(C)cn2)CC1 [Compound 8u, 1-Methyl-1H-imidazole-4-sulfonic acid {2-[(4-cyano-phenyl)-(3-methyl-3H-imidazol-4-ylmethyl)-amino]-ethyl}-(1-isobutyryl-piperidin-4-ylmethyl)-amide]
[1]; [5]
  EC50: 180 nM
[2]; [6]
  EC50: 230 nM
[3]
  inhibition at 0.005 µM: 57%
  inhibition at 0.05 µM: 92%

— US20080312287A1, “Compound and Methods For the Treatment of Cancer and Malaria” (University of Washington, priority 2005, published 2008)
